Data: ChEMBL document CHEMBL1131644, “1-Methoxy-agroclavine from Penicillium sp. WC75209, a novel inhibitor of the Lck tyrosine kinase” (Bioorg Med Chem Lett, 1998)
Active and inactive are the calls of the source. The calls are words filed in the database; no cut-off is given here.

Tests used:
[1] = target: T1, Tyrosine-protein kinase Lck (Homo sapiens, UniProt P06239); assay: Inhibition of p56 lck autophosphorylation, gamma-[33P]ATP incorporation (Inactive)
Target sequence in this assay (P06239 whole entry): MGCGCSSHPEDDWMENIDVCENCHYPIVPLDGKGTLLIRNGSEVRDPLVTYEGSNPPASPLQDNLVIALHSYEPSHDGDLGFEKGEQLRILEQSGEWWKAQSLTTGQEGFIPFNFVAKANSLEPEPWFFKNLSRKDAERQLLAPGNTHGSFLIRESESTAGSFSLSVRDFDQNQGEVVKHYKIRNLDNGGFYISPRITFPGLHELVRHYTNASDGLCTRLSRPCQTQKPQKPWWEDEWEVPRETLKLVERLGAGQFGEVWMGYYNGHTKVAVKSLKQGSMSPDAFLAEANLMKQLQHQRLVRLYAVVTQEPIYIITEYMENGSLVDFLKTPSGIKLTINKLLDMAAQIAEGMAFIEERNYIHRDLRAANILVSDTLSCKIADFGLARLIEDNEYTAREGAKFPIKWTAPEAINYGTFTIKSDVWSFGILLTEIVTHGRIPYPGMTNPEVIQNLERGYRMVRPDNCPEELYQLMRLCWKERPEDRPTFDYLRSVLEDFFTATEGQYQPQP

[2] = target: T2, Tyrosine-protein kinase SYK (Homo sapiens, UniProt P43405); assay: Inhibition of p72 syk autophosphorylation (Inactive)
[3] = target: T3, Tyrosine-protein kinase Blk (Homo sapiens, UniProt P51451); assay: (§1) Inhibition of p74 Blk tyrosine kinase autophosphorylation (Inactive)
Target sequence in this assay (P51451 whole entry): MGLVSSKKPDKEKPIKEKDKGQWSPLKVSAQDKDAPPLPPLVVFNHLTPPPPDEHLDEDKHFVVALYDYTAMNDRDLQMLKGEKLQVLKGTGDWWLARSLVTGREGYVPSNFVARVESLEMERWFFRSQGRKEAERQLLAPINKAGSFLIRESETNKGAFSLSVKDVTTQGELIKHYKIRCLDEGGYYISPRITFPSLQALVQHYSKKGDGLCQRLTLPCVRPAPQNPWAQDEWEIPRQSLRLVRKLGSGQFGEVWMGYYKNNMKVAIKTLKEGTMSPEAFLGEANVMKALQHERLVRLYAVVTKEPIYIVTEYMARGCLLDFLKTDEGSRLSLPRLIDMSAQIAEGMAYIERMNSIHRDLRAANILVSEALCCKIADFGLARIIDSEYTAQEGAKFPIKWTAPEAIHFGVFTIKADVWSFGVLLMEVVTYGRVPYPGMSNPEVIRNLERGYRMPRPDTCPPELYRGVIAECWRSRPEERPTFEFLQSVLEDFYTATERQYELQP

[4] = target: Epidermal growth factor receptor (Homo sapiens) (UniProt P00533); details: 10 uM
Description: Inhibition of Epidermal growth factor receptor at 10 uM

[5] = target: T2, Tyrosine-protein kinase SYK; assay: Inhibition of p72 syk autophosphorylation
[6] = target: T3, Tyrosine-protein kinase Blk; assay: as §1; remark: listed apart in the source
Target sequence in this assay (P51451 2-505 limits assumed): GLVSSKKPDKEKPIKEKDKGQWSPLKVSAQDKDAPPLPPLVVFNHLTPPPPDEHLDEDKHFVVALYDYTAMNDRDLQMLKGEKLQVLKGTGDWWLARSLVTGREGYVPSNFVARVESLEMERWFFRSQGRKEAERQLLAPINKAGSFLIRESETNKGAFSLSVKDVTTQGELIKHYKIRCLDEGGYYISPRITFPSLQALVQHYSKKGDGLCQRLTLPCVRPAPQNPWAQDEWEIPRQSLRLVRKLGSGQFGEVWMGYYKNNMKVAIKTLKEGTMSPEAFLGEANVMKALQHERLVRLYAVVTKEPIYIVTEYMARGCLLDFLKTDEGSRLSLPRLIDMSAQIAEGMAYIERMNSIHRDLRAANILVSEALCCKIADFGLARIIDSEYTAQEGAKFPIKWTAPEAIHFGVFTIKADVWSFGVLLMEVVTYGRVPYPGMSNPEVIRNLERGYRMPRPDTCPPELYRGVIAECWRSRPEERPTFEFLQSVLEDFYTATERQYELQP

[7] = target: Tyrosine-protein kinase Fyn (Homo sapiens) (UniProt P06241); assay: Inhibition of Fyn protein kinase at 10 uM
Chain of Tyrosine-protein kinase Fyn (Homo sapiens) (P06241 2-537 limits assumed): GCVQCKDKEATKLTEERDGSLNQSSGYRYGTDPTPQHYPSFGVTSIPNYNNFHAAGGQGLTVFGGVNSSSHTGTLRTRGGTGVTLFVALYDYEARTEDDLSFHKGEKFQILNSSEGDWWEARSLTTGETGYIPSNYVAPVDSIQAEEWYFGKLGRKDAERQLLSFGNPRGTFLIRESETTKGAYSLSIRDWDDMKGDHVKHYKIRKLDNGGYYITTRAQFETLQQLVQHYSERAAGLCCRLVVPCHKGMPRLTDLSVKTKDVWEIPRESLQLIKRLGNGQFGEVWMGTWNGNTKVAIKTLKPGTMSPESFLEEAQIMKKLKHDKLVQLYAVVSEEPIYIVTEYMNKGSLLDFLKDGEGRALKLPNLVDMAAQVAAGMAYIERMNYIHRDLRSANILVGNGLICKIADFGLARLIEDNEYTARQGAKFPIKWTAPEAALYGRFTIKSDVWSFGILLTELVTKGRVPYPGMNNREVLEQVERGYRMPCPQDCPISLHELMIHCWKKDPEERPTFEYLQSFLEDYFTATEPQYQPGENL

[8] = target: Protein kinase C alpha type (Homo sapiens) (UniProt P17252); assay: Inhibition of Protein kinase C alpha at 10 uM Histone H1 substrate
[9] = target: T1, Tyrosine-protein kinase Lck; assay: Inhibition of Lck protein kinase at 10 uM
[10] = target: T4, CaM kinase II (Homo sapiens) (UniProt Q13557+Q13555+Q13554+Q9UQM7); assay: (§2) Inhibition of [Ca(2+)]/Calmodulin-dependent Type II protein kinase at 10 uM; type: protein assay
[11] = target: Protein kinase C beta type (Homo sapiens) (UniProt P05771); assay: Inhibition of Protein Kinase C beta at 10 uM Histone H1 substrate (Inactive)
Chain of Protein kinase C beta type (Homo sapiens) (P05771 2-671 limits assumed): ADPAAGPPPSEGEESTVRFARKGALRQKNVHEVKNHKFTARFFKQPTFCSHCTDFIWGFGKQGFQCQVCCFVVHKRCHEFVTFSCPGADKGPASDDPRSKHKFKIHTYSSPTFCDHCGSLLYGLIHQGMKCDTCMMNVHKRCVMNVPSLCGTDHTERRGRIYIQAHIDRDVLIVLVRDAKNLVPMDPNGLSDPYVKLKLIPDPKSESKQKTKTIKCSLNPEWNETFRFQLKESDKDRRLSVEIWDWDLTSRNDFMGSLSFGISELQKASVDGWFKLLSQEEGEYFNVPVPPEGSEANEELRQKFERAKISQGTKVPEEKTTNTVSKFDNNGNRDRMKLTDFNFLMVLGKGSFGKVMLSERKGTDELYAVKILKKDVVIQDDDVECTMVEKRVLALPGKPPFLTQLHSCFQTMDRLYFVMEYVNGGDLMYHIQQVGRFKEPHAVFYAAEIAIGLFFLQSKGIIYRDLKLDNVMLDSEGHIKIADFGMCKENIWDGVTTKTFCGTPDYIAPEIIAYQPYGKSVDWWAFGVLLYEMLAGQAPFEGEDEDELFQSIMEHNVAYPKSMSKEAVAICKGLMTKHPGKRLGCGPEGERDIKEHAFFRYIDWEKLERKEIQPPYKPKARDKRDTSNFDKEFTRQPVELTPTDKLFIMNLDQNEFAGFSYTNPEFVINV

M109 = assay: Cytotoxic effect on M109 mouse lung carcinoma cells at 40 uM (No effect); type: functional, cell-based
[12] = Inhibition of cAMP-dependent protein kinase at 10 uM Histone H1 substrate
[13] = target: T4, CaM kinase II (Homo sapiens); assay: as §2; type: protein assay; remark: listed apart in the source
[14] = target: Receptor tyrosine-protein kinase erbB-2 (Homo sapiens) (UniProt P04626); assay: Inhibition of Her2, ErbB2 receptor tyrosine kinase at 10 uM
Chain of Receptor tyrosine-protein kinase erbB-2 (Homo sapiens) (P04626 whole entry): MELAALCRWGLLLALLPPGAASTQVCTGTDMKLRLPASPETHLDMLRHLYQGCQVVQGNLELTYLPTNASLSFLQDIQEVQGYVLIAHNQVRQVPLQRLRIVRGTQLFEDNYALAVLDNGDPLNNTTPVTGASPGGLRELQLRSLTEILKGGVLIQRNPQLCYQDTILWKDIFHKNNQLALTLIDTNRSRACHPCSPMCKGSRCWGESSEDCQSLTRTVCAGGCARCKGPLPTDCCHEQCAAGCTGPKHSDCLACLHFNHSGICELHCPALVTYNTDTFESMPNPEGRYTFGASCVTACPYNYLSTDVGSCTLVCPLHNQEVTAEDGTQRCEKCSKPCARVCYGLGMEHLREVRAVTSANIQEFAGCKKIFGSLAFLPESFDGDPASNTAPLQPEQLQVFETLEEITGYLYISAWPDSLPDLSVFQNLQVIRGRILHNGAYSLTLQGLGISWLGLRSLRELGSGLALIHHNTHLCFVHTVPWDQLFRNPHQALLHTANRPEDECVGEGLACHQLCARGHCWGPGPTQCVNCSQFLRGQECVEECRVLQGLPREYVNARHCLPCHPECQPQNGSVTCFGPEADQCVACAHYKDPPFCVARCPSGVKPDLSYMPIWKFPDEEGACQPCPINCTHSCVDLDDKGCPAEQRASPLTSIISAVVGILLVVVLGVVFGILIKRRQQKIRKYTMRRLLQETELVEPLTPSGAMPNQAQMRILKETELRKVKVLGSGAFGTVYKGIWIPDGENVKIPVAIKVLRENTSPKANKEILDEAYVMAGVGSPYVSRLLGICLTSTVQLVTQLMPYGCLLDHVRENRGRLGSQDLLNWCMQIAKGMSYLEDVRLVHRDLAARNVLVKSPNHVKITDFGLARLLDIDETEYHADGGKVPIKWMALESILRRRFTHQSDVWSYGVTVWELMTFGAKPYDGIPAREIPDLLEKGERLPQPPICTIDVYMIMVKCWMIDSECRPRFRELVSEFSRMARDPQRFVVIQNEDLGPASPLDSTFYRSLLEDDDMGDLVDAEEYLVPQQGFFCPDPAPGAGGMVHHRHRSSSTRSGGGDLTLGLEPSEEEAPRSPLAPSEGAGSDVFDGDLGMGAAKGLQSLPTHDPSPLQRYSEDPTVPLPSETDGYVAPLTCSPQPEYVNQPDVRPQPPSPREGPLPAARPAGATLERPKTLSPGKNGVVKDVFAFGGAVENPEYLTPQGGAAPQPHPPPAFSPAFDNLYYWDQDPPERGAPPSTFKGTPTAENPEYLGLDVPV

[15] = target: Protein kinase C gamma type (Homo sapiens) (UniProt P05129); assay: Inhibition of Protein Kinase C gamma at 10 uM Histone H1 substrate
[16] = target: T1, Tyrosine-protein kinase Lck; assay: Inhibition of p56 lck autophosphorylation, gamma-[33P]ATP incorporation
Target sequence in this assay (P06239 whole entry): as the sequence (P06239 whole entry) above

CN1C[C@H](CO)C=C2c3cccc4[nH]cc(c34)C[C@H]21
IC50 [1]: Not Active

CC1=C[C@@H]2c3cccc4[nH]cc(c34)C[C@H]2N(C)C1 [AGROCLAVINE]
IC50 [2]: Not Active
IC50 [3]: Not Active
IC50 [1]: Not Active

COn1cc2c3c(cccc31)[C@@H]1C=C(C)CN(C)[C@@H]1C2
inhibition [4]: 14%
IC50 [5]: 285 µM
inhibition [6]: inactive
inhibition [7]: 19%
inhibition [8]: inactive
inhibition [9]: 42%
inhibition [10]: inactive
inhibition [11]: inactive
Cytotoxicity (M109): inactive
inhibition [12]: inactive
inhibition [13]: inactive
inhibition [14]: 9%
inhibition [15]: inactive
IC50 [16]: 8.5 µM
